What was measured:
Test in all cases: relative viability (nuclei count vs DMSO), 5 days (fraction); higher = more cells survive
[1] = tested on: A-427
Outline: (§1)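 Lung cancer cell lines were seeded in 1536-well plates and dosed by pin tool the next day, with either a single drug or a fixed anchor-drug dose combined with five library-drug doses (not always all listed) spaced in √10 steps. Five days later, one step fixed the cells and stained their nuclei (final 0.05% Triton X-100, 1% formaldehyde, 1 ug/ml Hoechst), and nuclei were counted on 4× images. Relative viability is the nuclei count in treated wells divided by the count in vehicle wells, and each value is the median of duplicate plates.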

[2] = tested on: CAL-12T
Outline: as §1

[3] = tested on: COR-L 105
Outline: as §1

[4] = tested on: EMC-BAC-2
Outline: as §1

[5] = tested on: HARA
Outline: as §1

[6] = tested on: HCC-366
Outline: as §1

[7] = tested on: HCC-827
Outline: as §1

[8] = tested on: HOP-62
Outline: as §1

[9] = tested on: LCLC-103H
Outline: as §1

[10] = tested on: NCI-H1395
Outline: as §1

[11] = tested on: NCI-H1437
Outline: as §1

[12] = tested on: NCI-H1755
Outline: as §1

[13] = tested on: NCI-H1792
Outline: as §1

[14] = tested on: NCI-H1915
Outline: as §1

[15] = tested on: NCI-H2009
Outline: as §1

[16] = tested on: NCI-H2228
Outline: as §1

[17] = tested on: NCI-H23
Outline: as §1

[18] = tested on: NCI-H460
Outline: as §1

[19] = tested on: NCI-H727
Outline: as §1

[20] = tested on: SK-LU-1
Outline: as §1

[21] = tested on: SW 1573
Outline: as §1

COc1nc(C)cnc1NS(=O)(=O)c1cccnc1-c1ccc(-c2nnco2)cc1 [Zibotentan] + Cc1nc(NC(=O)N2CCC[C@H]2C(N)=O)sc1-c1ccnc(C(C)(C)C(F)(F)F)c1 [Alpelisib] (partner 2 µM)
relative viability ([1]; first compound 0.08 µM): 1.08 | relative viability ([1]; first compound 0.253 µM): 1.14 | relative viability ([1]; first compound 0.8 µM): 1.09 | relative viability ([1]; first compound 2.53 µM): 1.08 | relative viability ([2]; first compound 0.08 µM): 1.25 | relative viability ([2]; first compound 0.253 µM): 0.923 | relative viability ([2]; first compound 0.8 µM): 1.33 | relative viability ([2]; first compound 2.53 µM): 1.23 | relative viability ([3]; first compound 0.08 µM): 1.13 | relative viability ([3]; first compound 0.253 µM): 0.892 | relative viability ([3]; first compound 0.8 µM): 1.21 | relative viability ([3]; first compound 2.53 µM): 0.93 | relative viability ([4]; first compound 0.08 µM): 0.78 | relative viability ([4]; first compound 0.253 µM): 0.72 | relative viability ([4]; first compound 0.8 µM): 0.714 | relative viability ([4]; first compound 2.53 µM): 0.782 | relative viability ([5]; first compound 0.08 µM): 0.856 | relative viability ([5]; first compound 0.253 µM): 0.764 | relative viability ([5]; first compound 0.8 µM): 0.686 | relative viability ([5]; first compound 2.53 µM): 0.89 | relative viability ([6]; first compound 0.08 µM): 0.561 | relative viability ([6]; first compound 0.253 µM): 0.373 | relative viability ([6]; first compound 0.8 µM): 0.474 | relative viability ([6]; first compound 2.53 µM): 0.497 | relative viability ([7]; first compound 0.08 µM): 1.01 | relative viability ([7]; first compound 0.253 µM): 1.07 | relative viability ([7]; first compound 0.8 µM): 0.808 | relative viability ([7]; first compound 2.53 µM): 0.975 | relative viability ([8]; first compound 0.08 µM): 1.01 | relative viability ([8]; first compound 0.253 µM): 1.03 | relative viability ([8]; first compound 0.8 µM): 1.12 | relative viability ([8]; first compound 2.53 µM): 0.911 | relative viability ([9]; first compound 0.08 µM): 0.955 | relative viability ([9]; first compound 0.253 µM): 0.969 | relative viability ([9]; first compound 0.8 µM): 1.01 | relative viability ([9]; first compound 2.53 µM): 1.05 | relative viability ([10]; first compound 0.08 µM): 1.28 | relative viability ([10]; first compound 0.253 µM): 0.993 | relative viability ([10]; first compound 0.8 µM): 1.18 | relative viability ([10]; first compound 2.53 µM): 1.42 | relative viability ([11]; first compound 0.08 µM): 0.949 | relative viability ([11]; first compound 0.253 µM): 0.867 | relative viability ([11]; first compound 0.8 µM): 0.913 | relative viability ([11]; first compound 2.53 µM): 0.973 | relative viability ([12]; first compound 0.08 µM): 0.887 | relative viability ([12]; first compound 0.253 µM): 0.911 | relative viability ([12]; first compound 0.8 µM): 0.937 | relative viability ([12]; first compound 2.53 µM): 0.94 | relative viability ([13]; first compound 0.08 µM): 0.621 | relative viability ([13]; first compound 0.253 µM): 0.58 | relative viability ([13]; first compound 0.8 µM): 0.559 | relative viability ([13]; first compound 2.53 µM): 0.648 | relative viability ([14]; first compound 0.08 µM): 1.14 | relative viability ([14]; first compound 0.253 µM): 1.1 | relative viability ([14]; first compound 0.8 µM): 1.09 | relative viability ([14]; first compound 2.53 µM): 1.03 | relative viability ([15]; first compound 0.08 µM): 1.14 | relative viability ([15]; first compound 0.253 µM): 1.1 | relative viability ([15]; first compound 0.8 µM): 1.18 | relative viability ([15]; first compound 2.53 µM): 1.2 | relative viability ([16]; first compound 0.08 µM): 0.66 | relative viability ([16]; first compound 0.253 µM): 0.652 | relative viability ([16]; first compound 0.8 µM): 0.59 | relative viability ([16]; first compound 2.53 µM): 0.873 | relative viability ([17]; first compound 0.08 µM): 0.679 | relative viability ([17]; first compound 0.253 µM): 0.7 | relative viability ([17]; first compound 0.8 µM): 0.681 | relative viability ([17]; first compound 2.53 µM): 0.726 | relative viability ([18]; first compound 0.08 µM): 0.58 | relative viability ([18]; first compound 0.8 µM): 0.57 | relative viability ([18]; first compound 2.53 µM): 0.452 | relative viability ([19]; first compound 0.08 µM): 0.483 | relative viability ([19]; first compound 0.253 µM): 0.794 | relative viability ([19]; first compound 0.8 µM): 0.55 | relative viability ([19]; first compound 2.53 µM): 0.643 | relative viability ([20]; first compound 0.08 µM): 1.08 | relative viability ([20]; first compound 0.253 µM): 0.629 | relative viability ([20]; first compound 0.8 µM): 1.12 | relative viability ([20]; first compound 2.53 µM): 0.907 | relative viability ([21]; first compound 0.08 µM): 0.726 | relative viability ([21]; first compound 0.253 µM): 0.639 | relative viability ([21]; first compound 0.8 µM): 0.775 | relative viability ([21]; first compound 2.53 µM): 0.758

From the supplement of paper PMC10307832
